Kd, IC50 and Ki data for three compounds are collected here from article PMC5715060, “Key site residues of pheromone-binding protein 1 involved in interacting with sex pheromone components of Helicoverpa armigera” (Scientific Reports, 2017).

As a reminder, the Kd is the equilibrium constant for the complex coming apart. As a reminder, the Ki is the dissociation constant of the complex between target and ligand, obtained from inhibition or displacement.

The target in test [1] is HarmPBP1 mutant F119A (Helicoverpa armigera, UniProt F5ANH9, F146A). Nature of the test: Fluorescence binding assay (1-NPN probe), mutant F119A. On the procedure:
(§1) Fluorescence binding assays were performed in a reaction system at pH7.4. Probed by 1-NPN, the maximum emission wavelengths of F12A, F36A, W37A, F119A and Q64A were in the range of 390–410 nm, which are similar to that of HarmPBP1 (400 nm).
(§2) Four mutations of HarmPBP1, F12A (mutating phenylalanine to alanine at position 12), F36A (mutating phenylalanine to alanine at position 36), W37A (mutating tryptophan to alanine at position 37) and F119A (mutating phenylalanine to alanine at position 119) were generated by using the Quick-change lightning site-directed mutagenesis kit (Stratagene, USA), and a random mutation, Q64A (mutating glutanine to alanine at position 64) was set as control. The pGEM-T Easy/HarmPBP1 construct was used as template, and the specific primers designed for mutations were also listed in Table 1. The PCR conditions were 95 °C for 30 s, followed by 18 cycles of 95 °C for 30 s, 60 °C for 1 min, 68 °C for 4 min. Valid mutants were sub-cloned into pGEM-T easy vector (Promega, USA). Same expression vector and competent cells were used as the HarmPBP1. The recombinant mutant protein prokaryotic expression and purification were conducted as mentioned above.
(§3) Fluorescence binding assays were conducted on the F-380 fluorescence spectrophotometer (Gangdong Sci. & Tech, Tianjin, China) in a 1-cm light path quartz cuvette to further investigate the binding abilities of the principal pheromone components of H. armigera, Z11-16:Ald and Z9-16:Ald, to mutants. The fluorescent probe N-phenyl- 1-naphthylamine (1-NPN) was dissolved in methanol to yield a 1 mM stock solution. Both of the excitation and emission slit widths were 10 nm. Fluorescence of 1-NPN was excited at 337 nm and the emission spectra were recorded between 390 and 490 nm. Z11-16:Ald and Z9-16:Ald were purchased from Sigma-Aldrich (purity >98%). All chemicals used in this study were dissolved in HPLC purity grade methanol. Fluorescence measurements were performed according to Gu et al.[11]. Dissociation constants of the competitors were calculated from the corresponding IC50 (the ligand concentration displacing 50% of the NPN fluorescence intensity of the HarmPBP1/1-NPN complex) values, using the equation: Ki = [IC50]/(1 + [1-NPN]/K1-NPN), where [1-NPN] is the free concentration of 1-NPN and K1-NPN is the dissociation constant of the HarmPBP1/1-NPN complex.

The target in test [2] is HarmPBP1 mutant Q64A (Helicoverpa armigera, UniProt F5ANH9, Q91A). Put plainly: Fluorescence binding assay (1-NPN probe), control mutant Q64A. On the procedure:
as §1, §2, §3

The target in test [3] is HarmPBP1 mutant F12A (Helicoverpa armigera, UniProt F5ANH9, F39A). Nature of the test: Fluorescence binding assay (1-NPN probe), mutant F12A. On the procedure:
as §1, §2, §3

Test [4] addresses HarmPBP1 (wild-type) (Helicoverpa armigera, UniProt F5ANH9). Put plainly: Fluorescence binding assay (1-NPN probe), wild-type HarmPBP1. Particulars: for Ki / IC50: wild-type HarmPBP1, pH 7.4; for Ki: calculated from IC50, Ki = [IC50]/(1 + [1-NPN]/K1-NPN), read-out: Ki, dissociation constant; for IC50: mean ± S.E.M, three replicates, read-out: IC50, ligand concentration displacing 50% of the fluorescence intensity of the protein/1-NPN complex. The method, then:
as §1, §3

In test [5] the target is HarmPBP1 mutant F36A (Helicoverpa armigera, UniProt F5ANH9, F63A). Put plainly: Fluorescence binding assay (1-NPN probe), mutant F36A. The method, then:
as §1, §2, §3

For test [6], the target named is HarmPBP1 mutant W37A (Helicoverpa armigera, UniProt F5ANH9, W64A). Put plainly: Fluorescence binding assay (1-NPN probe), mutant W37A. The method, then:
as §1, §2, §3

Sequence of HarmPBP1 mutant Q64A (F5ANH9 entry or part of it Q91A): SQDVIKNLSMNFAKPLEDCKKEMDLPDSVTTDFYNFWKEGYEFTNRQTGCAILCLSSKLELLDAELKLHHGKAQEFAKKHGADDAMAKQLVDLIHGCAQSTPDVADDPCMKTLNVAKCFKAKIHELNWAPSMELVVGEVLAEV
Sequence of HarmPBP1 mutant F12A (F5ANH9 entry or part of it F39A): as the sequence (F5ANH9 entry or part of it Q91A) above, with F12A, A64Q counted along it
Sequence of HarmPBP1 mutant W37A (F5ANH9 entry or part of it W64A): as the sequence (F5ANH9 entry or part of it Q91A) above, with W37A, A64Q counted along it
Sequence of HarmPBP1 mutant F36A (F5ANH9 entry or part of it F63A): as the sequence (F5ANH9 entry or part of it Q91A) above, with F36A, A64Q counted along it
Sequence of HarmPBP1 (wild-type) (F5ANH9 entry or part of it): as the sequence (F5ANH9 entry or part of it Q91A) above, with A64Q counted along it
Sequence of HarmPBP1 mutant F119A (F5ANH9 entry or part of it F146A): as the sequence (F5ANH9 entry or part of it Q91A) above, with A64Q, F119A counted along it

For `c1ccc(Nc2cccc3ccccc23)cc1` [1-NPN, N-phenyl-1-naphthylamine], the Kd in test [1] turned out to be 1960 ± 160 nM; in test [2], 2390 ± 190 nM; in test [3], 2100 ± 170 nM; in test [4] it was 1790 ± 140 nM; in test [5], 4050 ± 690 nM; in test [6] it was 1870 ± 180 nM.

For `CCCCCC/C=C\CCCCCCCC=O` [Z9-16:Ald, (Z)-9-hexadecenal], the IC50 in test [1] was 6910 ± 490 nM; in test [2], 840 ± 60 nM; in test [3], 4630 ± 270 nM; in test [4], 870 ± 80 nM; in test [5] it was 980 ± 150 nM; in test [6] it was 2220 ± 190 nM. Further, the inhibition constant (Ki) in test [1] is 4610 ± 330 nM; in test [2] it was 580 ± 30 nM; in test [3], 3060 ± 220 nM; in test [4], 560 ± 50 nM; in test [5], 720 ± 110 nM; in test [6] it was 1490 ± 130 nM.

Turning to `CCCC/C=C\CCCCCCCCCC=O` [Z11-16:Ald, (Z)-11-hexadecenal], the IC50 in test [1] was found to be 7660 ± 560 nM; in test [2], 1120 ± 210 nM; in test [3], 4690 ± 330 nM; in test [4], 1030 ± 80 nM; in test [5], 1040 ± 60 nM; in test [6], 2910 ± 120 nM. Also, the Ki is 5110 ± 470 nM in test [1]; 770 ± 130 nM in test [2]; 3100 ± 130 nM in test [3]; 670 ± 50 nM in test [4]; 760 ± 80 nM in test [5]; 1950 ± 80 nM in test [6].
